Results taken from patent publication EP4664463A1, “COMPUTER-IMPLEMENTED METHOD FOR OLFACTORY PROPERTY PREDICTION” (Givaudan SA, priority 2024, dated 2025).
Numbering of substitutions follows the chain as printed. Where two headings read alike, the source gives them in different places.

Key:
[1] = system: OR2M2; test: Activation of modified OR2M2 by sulfur compounds in presence of copper (luciferase); format: cell-based, human; conditions: modified C-terminus
From the text: The most pungent odorant in human axillary sweat with an ODT of 1 picogram / L air is 3-methyl-3-sulfanyl-hexanol (also known as 3-methyl-3-mercapto-hexanol) (Natsch et al. identification of Odoriferous Sulfanylalkanols in Human Axilla Secretions and Their Formation through Cleavage of Cysteine Precursors by a C-S Lyase Isolated from Axilla bacteria. […] 2004; 1:1058-1072). So far, no OR has been described which can selectively detect this key odorant leading to undesired axilla odor in human subjects. By screening a library of receptor variants with the C-terminal sequence SEQ ID NO: 86 in presence of copper against a library of 52 sulfur compounds (see example 5), a hitherto orphan receptor, OR2M2, was identified, which is activated by 3-methyl-3-mercapto-hexanol and closely related chemicals, but not by other sulfur odorants (Figure 19).

[2] = target: T1, OR8K3 (Homo sapiens, UniProt Q8NH51); test: cell-based; format: cell-based
T1 construct: expressed in transfected cells; host or cells: HEK293T cells stably expressing human RTP1S (V227I) and RTP2 (L220R)
T1 sequence (Q8NH51 1-312): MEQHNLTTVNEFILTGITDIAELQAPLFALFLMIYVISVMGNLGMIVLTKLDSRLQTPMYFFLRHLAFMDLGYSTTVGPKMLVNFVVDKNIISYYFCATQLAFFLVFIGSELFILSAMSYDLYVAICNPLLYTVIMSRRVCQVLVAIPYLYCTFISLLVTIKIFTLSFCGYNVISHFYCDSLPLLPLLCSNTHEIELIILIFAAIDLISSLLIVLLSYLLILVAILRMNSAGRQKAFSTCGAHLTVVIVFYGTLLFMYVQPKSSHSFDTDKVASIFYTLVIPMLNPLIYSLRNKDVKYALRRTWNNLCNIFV
From the text: (§1) To create an expression plasmid, an OR coding sequence fused at the end of TM7 to the desired C-terminus sequence was synthesized by a DNA synthesis service provider (BioCat GmbH, Germany) and inserted into pcDNA3.1(+) (Invitrogen, MA, USA) downstream of the CMV promoter sequence (SEQ ID NO: 82) using BamHI and Notl restriction sites. All the synthetic OR nucleotide sequences described below in Examples 1-15 further contained at their N-terminus a nucleotide sequence encoding a signal peptide (mmLucy-FLAG-rho, SeQ ID NOs: 80, 81) and at the C-terminus the bgh terminator sequence (SEQ ID NO: 83). All the OR expression plasmids also contain a Kozak sequence (GCCACC) between the BamHI restriction site and the start codon of the signal peptide. These plasmids thus contain a constitutively expressed OR gene.
(§2) Thus, using the improved sensitivity of the assay provided by the modified variant, activation of OR8K3 by a broader set of mint-smelling molecules can be detected.
(§3) Knowing the importance of the C-terminal sequence for proper expression as observed in the previous examples, an obvious way to improve expression might be just to provide a hybrid receptor whereby the C-terminal domain in a non-functional or poorly functional receptor is replaced by the C-terminal domain of a functional receptor. […] Thus the C-terminal sequence of OR8K3 was replaced with the C-terminal sequence of the ambrettolide-receptor OR1N2 or the musk receptor OR5AN1. […] Thus the improvement achieved with the modified C-terminal sequences of this disclosure cannot be achieved by simply generating chimeric receptors combining a functional C-terminal domain of a functional receptor with a poorly expressed receptor.

[3] = target: T2, OR8K3 (Homo sapiens, UniProt Q8NH51, D295E/Y298D); test: cell-based; format: cell-based
T2 construct: expressed in transfected cells; host or cells: HEK293T cells stably expressing human RTP1S (V227I) and RTP2 (L220R)
T2 sequence (Q8NH51 with tags, fused parts or gaps D295E/Y298D): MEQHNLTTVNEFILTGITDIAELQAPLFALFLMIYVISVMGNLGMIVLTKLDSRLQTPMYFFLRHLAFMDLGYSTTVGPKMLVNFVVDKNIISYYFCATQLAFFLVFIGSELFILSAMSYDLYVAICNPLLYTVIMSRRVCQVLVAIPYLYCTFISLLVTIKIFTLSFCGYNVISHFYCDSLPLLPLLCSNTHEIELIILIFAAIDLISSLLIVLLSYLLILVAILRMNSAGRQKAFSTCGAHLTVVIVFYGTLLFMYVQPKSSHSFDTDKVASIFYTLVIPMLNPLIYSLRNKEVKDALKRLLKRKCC
From the text: as §1, §2, §3

[4] = system: OR8K3; test: cell-based; format: cell-based, human
From the text: as §1, §2, §3

[5] = system: OR10J5; test: cell-based; format: cell-based, human
From the text: as §1

[6] = target: T3, OR10J5 (Homo sapiens, UniProt Q8NHC4); test: cell-based; format: cell-based; conditions: for EC50: wild-type, read-out: Potency EC50
T3 construct: expressed in transfected cells; host or cells: HEK293T cells stably expressing human RTP1S (V227I) and RTP2 (L220R)
T3 sequence (Q8NHC4 1-309): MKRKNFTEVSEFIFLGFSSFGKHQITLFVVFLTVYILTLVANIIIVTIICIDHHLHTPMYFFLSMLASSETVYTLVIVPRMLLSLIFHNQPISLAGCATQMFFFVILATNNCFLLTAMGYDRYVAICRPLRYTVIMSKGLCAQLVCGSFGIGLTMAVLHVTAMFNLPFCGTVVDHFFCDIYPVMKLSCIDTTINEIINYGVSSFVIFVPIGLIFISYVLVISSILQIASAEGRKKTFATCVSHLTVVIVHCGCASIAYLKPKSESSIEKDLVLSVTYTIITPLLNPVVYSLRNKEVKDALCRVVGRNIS
From the text: as §1

[7] = target: T4, OR10J5 (Homo sapiens, UniProt Q8NHC4); test: cell-based; format: cell-based; conditions: for EC50: changed C-term SEQ ID NO: 86, read-out: Potency EC50
T4 construct: expressed in transfected cells; host or cells: HEK293T cells stably expressing human RTP1S (V227I) and RTP2 (L220R)
T4 sequence (Q8NHC4 with tags, fused parts or gaps): T3 sequence (Q8NHC4 1-309) with C301K, V303L, V304L, G305K, N307K, I308C, S309C
From the text: as §1

[8] = system: OR5B12; test: cell-based; format: cell-based, human
From the text: as §1

[9] = target: T5, OR5B12 (Homo sapiens, UniProt Q96R08); test: cell-based; format: cell-based; conditions: for EC50: changed C-term SEQ ID NO: 86, read-out: Potency EC50; for Detection threshold; concentration for 2-fold induction: changed C-term. SEQ ID NO: 86
T5 construct: expressed in transfected cells; host or cells: HEK293T cells stably expressing human RTP1S (V227I) and RTP2 (L220R)
T5 sequence (Q96R08 with tags, fused parts or gaps): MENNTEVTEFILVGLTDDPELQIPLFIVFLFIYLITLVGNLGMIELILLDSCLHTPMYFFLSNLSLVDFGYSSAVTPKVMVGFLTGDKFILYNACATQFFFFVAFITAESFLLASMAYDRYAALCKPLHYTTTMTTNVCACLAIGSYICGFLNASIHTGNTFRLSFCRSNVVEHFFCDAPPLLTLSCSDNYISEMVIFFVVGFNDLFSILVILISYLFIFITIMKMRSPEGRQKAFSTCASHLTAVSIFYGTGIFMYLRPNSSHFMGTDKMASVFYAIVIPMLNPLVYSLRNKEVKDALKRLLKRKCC
From the text: as §1

[10] = target: T6, OR5B12 (Homo sapiens, UniProt Q96R08); test: cell-based; format: cell-based; conditions: wild-type; for EC50: read-out: Potency EC50
T6 construct: expressed in transfected cells; host or cells: HEK293T cells stably expressing human RTP1S (V227I) and RTP2 (L220R)
T6 sequence (Q96R08 1-314): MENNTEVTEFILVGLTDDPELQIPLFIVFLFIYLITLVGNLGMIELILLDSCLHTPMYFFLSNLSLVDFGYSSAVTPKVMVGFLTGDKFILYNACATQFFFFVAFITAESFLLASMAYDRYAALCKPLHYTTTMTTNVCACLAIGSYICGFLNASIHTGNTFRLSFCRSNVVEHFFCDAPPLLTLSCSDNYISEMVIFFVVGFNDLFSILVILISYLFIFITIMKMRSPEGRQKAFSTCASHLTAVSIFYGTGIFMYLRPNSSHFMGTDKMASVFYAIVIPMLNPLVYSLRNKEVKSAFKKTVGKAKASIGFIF
From the text: as §1

[11] = target: T7, OR7D4 (Homo sapiens, UniProt Q8NG98, D296E/E302K/G299D); test: cell-based; format: cell-based; conditions: for EC50: read-out: Potency EC50
T7 construct: expressed in transfected cells; host or cells: HEK293T cells stably expressing human RTP1S (V227I) and RTP2 (L220R)
T7 sequence (Q8NG98 with tags, fused parts or gaps D296E/G299D/E302K limits assumed): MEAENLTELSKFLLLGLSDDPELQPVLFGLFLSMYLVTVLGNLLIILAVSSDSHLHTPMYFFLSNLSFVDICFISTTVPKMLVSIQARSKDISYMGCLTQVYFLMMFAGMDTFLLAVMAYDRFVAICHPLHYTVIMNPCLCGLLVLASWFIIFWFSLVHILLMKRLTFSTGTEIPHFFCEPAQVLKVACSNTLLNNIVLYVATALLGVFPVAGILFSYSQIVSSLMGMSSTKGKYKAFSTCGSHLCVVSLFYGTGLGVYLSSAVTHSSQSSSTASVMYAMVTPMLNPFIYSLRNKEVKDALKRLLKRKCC
From the text: as §1
Similarly, in Figure 7 the dose-response of OR7D4 is shown when tested both with androstenone and the closely related molecule androstenol. […] Thus, a better understanding of the receptive space of OR7D4 is possible based on the improved sensitivity of the assay provided by the modified variant.

[12] = target: T8, OR56A4 (Homo sapiens, UniProt Q8NGH8); test: cell-based; format: cell-based; conditions: wild-type
T8 construct: expressed in transfected cells; host or cells: HEK293T stably expressing human RTP1S(V227I) and RTP2(L220R)
T8 sequence (Q8NGH8 1-313): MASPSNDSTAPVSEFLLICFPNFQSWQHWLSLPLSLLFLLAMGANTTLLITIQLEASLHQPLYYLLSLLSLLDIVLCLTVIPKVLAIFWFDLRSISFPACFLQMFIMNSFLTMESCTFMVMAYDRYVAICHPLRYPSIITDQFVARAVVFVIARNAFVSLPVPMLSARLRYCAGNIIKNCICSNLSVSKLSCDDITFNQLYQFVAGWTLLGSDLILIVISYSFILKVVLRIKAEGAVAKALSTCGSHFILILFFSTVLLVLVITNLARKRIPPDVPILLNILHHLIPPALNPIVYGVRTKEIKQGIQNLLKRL
From the text: as §1
Activation of OR56A4 by acids of different chain length was further tested. […] Replacing the wild-type with the C-terminal sequence of the functional OR51 E1 did reduce activity. However, using the optimized sequence form Examples 1-5 led to a strong signal and much lower detection threshold upon addition of all three acids.

CC1=CCC(C(C)(C)S)CC1 (centres unmarked) [1-p-Menthene-8-thiol]
activation of OR2M2 [1]: activated

CC1CCC(C(C)C)C(O)C1 (centres unmarked) [Menthol]
Detection threshold; concentration for 2-fold induction [2]: 160 µM | EC50 ([2]; wild-type, read-out: Potency EC50): 236 µM | Detection threshold; concentration for 2-fold induction [3]: 11 µM | EC50 ([3]; changed C-term SEQ ID NO: 86, read-out: Potency EC50): 115 µM | Comments on efficacy [4]: 3-fold lower maximal induction for wild-type | Fold-improvement potency [4]: 2 | functional response ([4]; OR8K3 with C-terminal sequence of OR1N2 or OR5AN1): did not show any functional response

Cc1cc(CC(C)C)ccc1CCC=O [Nympheal, 3-(4-isobutyl-2-methylphenyl)propanal]
Comments on efficacy [5]: Only 1.8-fold induction for WT, but 5.5-fold for changed C-terminus | Fold-improvement potency [5]: >>6 | Fold-improvement threshold [5]: >>6 | Detection threshold; concentration for 2-fold induction [6]: n.i. (>31 µM, at cytotoxic dose) | EC50 [6]: > 31 µM | Detection threshold; concentration for 2-fold induction [7]: 5.64 µM | EC50 [7]: 6.2 µM

CCCCCC1C(=O)CCC1CC(=O)OC (centres unmarked) [Hedione]
Comments on efficacy [8]: Induction wild-type only 1.75-fold | Fold-improvement potency [8]: >5 | Fold-improvement threshold [8]: >9 | EC50 [9]: 58.3 µM | Detection threshold; concentration for 2-fold induction [9]: 29 µM | Detection threshold; concentration for 2-fold induction [10]: n.i. >>( 250) µM | EC50 [10]: > 250 µM

C[C@]12CC[C@@H](O)C[C@@H]1CC[C@@H]1[C@@H]2CC[C@]2(C)C=CC[C@@H]12 [androstenol]
activation of OR7D4 wild-type vs modified [11]: can only activate the modified version of the receptor

C=C(C)C1CCC2=CC(=O)CC(C)C2(C)C1 (centres unmarked) [Nootkatone, 5,6-Dimethyl-8-iso-propenylbicyclo-(4,4,0)-dec-1-en-3-one]
activation of OR2M2 [1]: activated

CCC(CC)C(=O)N(C)c1cccc(C)c1 [Paradisamide]
activation of OR2M2 [1]: activated

CCCCCCCCCC(=O)O [decanoic acid]
activation of wild-type OR56A4 [12]: activated at high concentration

CCCCCC1C(=O)CCC1CC(=O)OC (centres unmarked) [Hedione HC]
Comments on efficacy [8]: 4-fold lower maximal induction for wild-type | Fold-improvement potency [8]: 3.8 | Fold-improvement threshold [8]: 11 | EC50 [9]: 18.3 µM | Detection threshold; concentration for 2-fold induction [9]: 8.8 µM | Detection threshold; concentration for 2-fold induction [10]: 96 µM | EC50 [10]: 69 µM

CCCCCCCCC(=O)O [nonanoic acid]
activation of wild-type OR56A4 [12]: not

CC(C)[C@@H]1CC[C@@H](C)CC1=O [menthone]
Detection threshold; concentration for 2-fold induction [2]: > 316 µM | activation of modified receptor variant ([3]; OR8K3 with SEQ ID NO: 86): also activating the receptor, although with a lower potency

CCCC(C)(S)CCO (centres unmarked) [3-methyl-3-sulfanyl-hexanol]
activation of OR2M2 [1]: activated

C[C@]12CCC(=O)C[C@@H]1CC[C@@H]1[C@@H]2CC[C@]2(C)C=CC[C@@H]12 [Androstenone]
Comments on efficacy [11]: 3-fold lower maximal induction for wild-type | Fold-improvement potency [11]: 66 | EC50 ([11]; changed C-term SEQ ID NO: 86): 0.13 µM | EC50 ([11]; wild-type): 8.44 µM

C/C(=C\CCC=O)CCCC(C)(C)O [Mahonial, (4E)-9-hydroxy-5,9-dimethyl-4-Decenal]
Fold-improvement potency [5]: 2.3 | Fold-improvement threshold [5]: 11.5 | Detection threshold; concentration for 2-fold induction [6]: 7.42 µM | EC50 [6]: 46 µM | Detection threshold; concentration for 2-fold induction [7]: 0.65 µM | EC50 [7]: 20 µM
